# Test results reported in PubChem BioAssay AID2060624 (Molecular Pharmacology Branch, DTP, NCI, 2025).
# System: 217524-143-R1-J4-PDC spheroids with HUVEC/MSC, viability
# Assay: Anticancer human tumor 217524-143-R1-J4-PDC patient-derived pancreatic carcinoma cell line growth inhibition [CLK]
# Conditions: for IC50: curve of first compound; for viability, T/C: stronger effect = lower value
# How it was run: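 Multi-cell-type spheroids combined patient-derived tumor cells with HUVEC endothelial cells and human mesenchymal stem cells. Paired agents were dosed in half-log steps down from about clinical Cmax, or from 10 microM where Cmax was unknown.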
# [1] = second compound 0.0316 µM, first compound 0.0316 µM
# [2] = second compound 0.0316 µM, first compound 0.1 µM
# [3] = second compound 0.0316 µM, first compound 0.316 µM
# [4] = second compound 0.0316 µM, first compound 1 µM
# [5] = second compound 0.1 µM, first compound 0.0316 µM
# [6] = second compound 0.1 µM, first compound 0.1 µM
# [7] = second compound 0.1 µM, first compound 0.316 µM
# [8] = second compound 0.1 µM, first compound 1 µM
# [9] = second compound 0.316 µM, first compound 0.0316 µM
# [10] = second compound 0.316 µM, first compound 0.1 µM
# [11] = second compound 0.316 µM, first compound 0.316 µM
# [12] = second compound 0.316 µM, first compound 1 µM
# [13] = second compound 1 µM, first compound 0.0316 µM
# [14] = second compound 1 µM, first compound 0.1 µM
# [15] = second compound 1 µM, first compound 0.316 µM
# [16] = second compound 1 µM, first compound 1 µM
# [17] = second compound 3.16 µM, first compound 0.0316 µM
# [18] = second compound 3.16 µM, first compound 0.1 µM
# [19] = second compound 3.16 µM, first compound 0.316 µM
# [20] = second compound 3.16 µM, first compound 1 µM
# [21] = second compound 10 µM, first compound 0.0316 µM
# [22] = second compound 10 µM, first compound 0.1 µM
# [23] = second compound 10 µM, first compound 0.316 µM
# [24] = second compound 10 µM, first compound 1 µM
# [25] = second compound 0.0316 µM, first compound 0.00316 µM
# [26] = second compound 0.0316 µM, first compound 0.01 µM
# [27] = second compound 0.1 µM, first compound 0.00316 µM
# [28] = second compound 0.1 µM, first compound 0.01 µM
# [29] = second compound 0.316 µM, first compound 0.00316 µM
# [30] = second compound 0.316 µM, first compound 0.01 µM
# [31] = second compound 1 µM, first compound 0.00316 µM
# [32] = second compound 1 µM, first compound 0.01 µM
# [33] = second compound 3.16 µM, first compound 0.00316 µM
# [34] = second compound 3.16 µM, first compound 0.01 µM
# [35] = second compound 10 µM, first compound 0.00316 µM
# [36] = second compound 10 µM, first compound 0.01 µM
# 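Note: spheroids exposed to agents for seven days before reading.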
# 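Throughout, for viability, T/C: 100% = DMSO vehicle control viability.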
structure (smiles),measurement,setting,value
CC(Nc1ccc2c(c1)OCCn1cc(N3C(=O)OCC3C(F)F)nc1-2)C(N)=O (stereo unspecified) + CNC(=O)c1ccc(Nc2nc(OC3CCCC3)c3c(-c4ccc5nc(C)oc5c4)c[nH]c3n2)c(OC)c1,IC50,second compound 0.0316 µM,55.8 nM
same,IC50,second compound 0.1 µM,< 31.6 nM
same,IC50,second compound 0.316 µM,< 31.6 nM
same,IC50,second compound 1 µM,< 31.6 nM
same,IC50,second compound 3.16 µM,< 31.6 nM
same,IC50,second compound 10 µM,< 31.6 nM
same,"viability, T/C",[1],63.3%
same,"viability, T/C",[2],36.5%
same,"viability, T/C",[3],15.6%
same,"viability, T/C",[4],8.68%
same,"viability, T/C","second compound 0.0316 µM, first compound 3.16 µM",6.12%
same,"viability, T/C","second compound 0.0316 µM, first compound 10 µM",4.83%
same,"viability, T/C",[5],31.9%
same,"viability, T/C",[6],20.7%
same,"viability, T/C",[7],11.4%
same,"viability, T/C",[8],7.98%
same,"viability, T/C","second compound 0.1 µM, first compound 3.16 µM",5.53%
same,"viability, T/C","second compound 0.1 µM, first compound 10 µM",4.2%
same,"viability, T/C",[9],24.7%
same,"viability, T/C",[10],13.8%
same,"viability, T/C",[11],7.07%
same,"viability, T/C",[12],4.72%
same,"viability, T/C","second compound 0.316 µM, first compound 3.16 µM",3.59%
same,"viability, T/C","second compound 0.316 µM, first compound 10 µM",3.01%
same,"viability, T/C",[13],16.8%
same,"viability, T/C",[14],10.2%
same,"viability, T/C",[15],5.1%
same,"viability, T/C",[16],3.22%
same,"viability, T/C","second compound 1 µM, first compound 3.16 µM",3.05%
same,"viability, T/C","second compound 1 µM, first compound 10 µM",2.02%
same,"viability, T/C",[17],17.7%
same,"viability, T/C",[18],9.35%
same,"viability, T/C",[19],4.79%
same,"viability, T/C",[20],3.52%
same,"viability, T/C","second compound 3.16 µM, first compound 3.16 µM",2.61%
same,"viability, T/C","second compound 3.16 µM, first compound 10 µM",2.12%
same,"viability, T/C",[21],18.6%
same,"viability, T/C",[22],10.6%
same,"viability, T/C",[23],6.17%
same,"viability, T/C",[24],2.83%
same,"viability, T/C","second compound 10 µM, first compound 3.16 µM",3.46%
same,"viability, T/C","second compound 10 µM, first compound 10 µM",2.14%
CCN1CCN(Cc2ccc(Nc3ncc(F)c(-c4cc(F)c5nc(C)n(C(C)C)c5c4)n3)nc2)CC1 + CNC(=O)c1ccc(Nc2nc(OC3CCCC3)c3c(-c4ccc5nc(C)oc5c4)c[nH]c3n2)c(OC)c1,IC50,second compound 0.0316 µM,133 nM
same,IC50,second compound 0.1 µM,< 3.16 nM
same,IC50,second compound 0.316 µM,< 3.16 nM
same,IC50,second compound 1 µM,< 3.16 nM
same,IC50,second compound 3.16 µM,< 3.16 nM
same,IC50,second compound 10 µM,< 3.16 nM
same,"viability, T/C",[25],84.8%
same,"viability, T/C",[26],71.2%
same,"viability, T/C",[1],68.4%
same,"viability, T/C",[2],52.4%
same,"viability, T/C",[3],40%
same,"viability, T/C",[4],38.4%
same,"viability, T/C",[27],50.3%
same,"viability, T/C",[28],42%
same,"viability, T/C",[5],35.6%
same,"viability, T/C",[6],27.8%
same,"viability, T/C",[7],37.2%
same,"viability, T/C",[8],36%
same,"viability, T/C",[29],46.8%
same,"viability, T/C",[30],34.8%
same,"viability, T/C",[9],30.8%
same,"viability, T/C",[10],25.7%
same,"viability, T/C",[11],30.5%
same,"viability, T/C",[12],32%
same,"viability, T/C",[31],28.4%
same,"viability, T/C",[32],26.2%
same,"viability, T/C",[13],28.5%
same,"viability, T/C",[14],25.2%
same,"viability, T/C",[15],25.2%
same,"viability, T/C",[16],26.3%
same,"viability, T/C",[33],25.3%
same,"viability, T/C",[34],24.8%
same,"viability, T/C",[17],23.9%
same,"viability, T/C",[18],21.1%
same,"viability, T/C",[19],21.6%
same,"viability, T/C",[20],22.2%
same,"viability, T/C",[35],24.3%
same,"viability, T/C",[36],23%
same,"viability, T/C",[21],23.8%
same,"viability, T/C",[22],21.9%
same,"viability, T/C",[23],21.4%
same,"viability, T/C",[24],26.4%
COc1c(OCCCN2CCOCC2)ccc2c3n(c(=NC(=O)c4cnc(N)nc4)nc12)CCN3 + CNC(=O)c1ccc(Nc2nc(OC3CCCC3)c3c(-c4ccc5nc(C)oc5c4)c[nH]c3n2)c(OC)c1,IC50,second compound 0.0316 µM,6.97 nM
same,IC50,second compound 0.1 µM,< 3.16 nM
same,IC50,second compound 0.316 µM,< 3.16 nM
same,IC50,second compound 1 µM,< 3.16 nM
same,IC50,second compound 3.16 µM,< 3.16 nM
same,IC50,second compound 10 µM,< 3.16 nM
same,"viability, T/C",[25],74.9%
same,"viability, T/C",[26],38.7%
same,"viability, T/C",[1],10.4%
same,"viability, T/C",[2],4.29%
same,"viability, T/C",[3],2.9%
same,"viability, T/C",[4],2.31%
same,"viability, T/C",[27],36.7%
same,"viability, T/C",[28],21.8%
same,"viability, T/C",[5],9.86%
same,"viability, T/C",[6],3.54%
same,"viability, T/C",[7],3.16%
same,"viability, T/C",[8],2.09%
same,"viability, T/C",[29],22.1%
same,"viability, T/C",[30],14.2%
same,"viability, T/C",[9],7.78%
same,"viability, T/C",[10],3.17%
same,"viability, T/C",[11],2.58%
same,"viability, T/C",[12],2.49%
same,"viability, T/C",[31],19.9%
same,"viability, T/C",[32],10.9%
same,"viability, T/C",[13],4.57%
same,"viability, T/C",[14],3.24%
same,"viability, T/C",[15],1.78%
same,"viability, T/C",[16],1.77%
same,"viability, T/C",[33],21%
same,"viability, T/C",[34],11.8%
same,"viability, T/C",[17],5.14%
same,"viability, T/C",[18],2.24%
same,"viability, T/C",[19],1.69%
same,"viability, T/C",[20],1.26%
same,"viability, T/C",[35],16.7%
same,"viability, T/C",[36],9.36%
same,"viability, T/C",[21],5%
same,"viability, T/C",[22],2.58%
same,"viability, T/C",[23],1.86%
same,"viability, T/C",[24],1.37%
